Measured values published in PMC10005104 (Molecules, 2023).
Several values for one entry are separate records, joined by “and”; a condition that tells them apart may be missing. Equal values may be shown once. Entries after “also recorded” stand apart in the source; their conditions may differ. Where a name gives a salt, the structure may show the parent alone. Read-outs that look alike come from different tables or passages of the source.

Experiments:
[1] = target: T1, human H3 receptor (hH3R) (Homo sapiens, UniProt Q9Y5N1); experiment: [3H]-Nα-methylhistamine radioligand binding assay, HEK293 cell membranes expressing hH3R; settings: hH3R Ki Mean [CI 95%], HEK293 cells expressing human H3 receptor; at least three independent repetitions
T1 construct: expressed in transfected cells; host or cells: HEK293
Description: The affinity for hH3R was assessed in vitro in radioligand binding assays, using membrane preparations of HEK293 cells stably expressing hH3R, while [^3H]-N^α-methylhistamine was used as a radioligand. The exact procedure was described previously by Kottke et al.. Novel compounds were tested as oxalic acid salts. […]. The activity depended on all three variables, i.e., the presence of an amine group, the chain length (five or six carbons), and the type of substituent in the phenyl ring. With regard to the change in the amine moiety, it can be observed that, regardless of the length of the chain and the type of R substituent, the activity of the derivatives was arranged in the following order: 3-methylpiperidine ≥ piperidine ≥ azepane >> 4-metylpiperidine derivatives. Regarding the length of the carbon chain, compounds bearing the pentylene chain are characterized by a higher binding affinity to the receptor than hexylene derivatives (exception: 10). […]
H3R receptor affinity assays were performed in the radioligand competition assay. Human H3R was stably expressed in HEK293 cells. [^3H]-N^α-Methylhistamine (KD = 3.08 nM) was used as the radioligand. The compounds used in the experiments were dissolved in DMSO. The precise experiment was performed as previously described. Complete curves were obtained for at least seven approximate concentrations, in at least three independent experiments, performed at least in duplicate. Ki values were calculated using the Cheng–Prusoff equation. Results are presented as mean values with confidence intervals (CI) (95%).

[2] = target: T2, AChE from electrophorus electricus (eeAChE) (Electrophorus electricus, UniProt O42275); experiment: modified Ellman colorimetric assay, eeAChE; format: biochemical; settings: for IC50: three independent experiments, read-out: eeAChE IC50 Mean ± SEM
T2 construct: purchased Sigma-Aldrich (Steinheim, Germany)
Description: All compounds were tested at a concentration of 10 µM in a modified colorimetric method first described by Ellman et al. in the 1960s, using AChE from electrophorus electricus (eeAChE) and BuChE from equine serum (eqBuChE). […]. All results are collected in Table 1. […]. […] No correlation was observed between inhibitory activity and hH3R affinity. The most interesting compounds were among the azepane derivatives. […]. AChE from electrophorus electricus and BuChE from equine serum were purchased from Sigma-Aldrich (Steinheim, Germany). The whole procedure was performed as previously described, using a modified Ellman method in 96-well microplates. Absorbance was measured using an EnSpire multimode microplate reader (PerkinElmer, Waltham, MA, USA) at 412 nm. Initial screening was performed for compounds at a concentration of […]. The percentage of inhibition was calculated by comparison with a blank sample (100% enzyme activity). For compounds showing >70% inhibition of enzyme activity, IC50 values were determined, measuring absorbance at six different inhibitor concentrations. Each concentration was measured in triplicate. IC50 values were calculated using GrapPad Prism 9 software (GraphPad Software, San Diego, CA, USA). Data are expressed as mean ± SEM.

[3] = target: T3, BuChE from equine serum (eqBuChE) (Equus caballus, UniProt P81908); experiment: biochemical; settings: three independent experiments; read-out: eqBuChE IC50 Mean ± SEM
T3 construct: BuChE from equine serum (eqBuChE); purchased Sigma-Aldrich (Steinheim, Germany); host or cells: equine serum
Description: AChE from electrophorus electricus and BuChE from equine serum were purchased from Sigma-Aldrich (Steinheim, Germany). The whole procedure was performed as previously described, using a modified Ellman method in 96-well microplates. […] Initial screening was performed for compounds at a concentration of […]. The percentage of inhibition was calculated by comparison with a blank sample (100% enzyme activity). […] Each concentration was measured in triplicate. IC50 values were calculated using GrapPad Prism 9 software (GraphPad Software, San Diego, CA, USA). Data are expressed as mean ± SEM.

[4] = target: T4, hMAO B (Homo sapiens, UniProt P27338); experiment: fluorometric Amplex red MAO assay; format: biochemical; settings: at 1 µM; two independent experiments; read-out: hMAO B % inh
T4 construct: purchased Sigma-Aldrich (Steinheim, Germany)
T4 sequence (P27338 1-520): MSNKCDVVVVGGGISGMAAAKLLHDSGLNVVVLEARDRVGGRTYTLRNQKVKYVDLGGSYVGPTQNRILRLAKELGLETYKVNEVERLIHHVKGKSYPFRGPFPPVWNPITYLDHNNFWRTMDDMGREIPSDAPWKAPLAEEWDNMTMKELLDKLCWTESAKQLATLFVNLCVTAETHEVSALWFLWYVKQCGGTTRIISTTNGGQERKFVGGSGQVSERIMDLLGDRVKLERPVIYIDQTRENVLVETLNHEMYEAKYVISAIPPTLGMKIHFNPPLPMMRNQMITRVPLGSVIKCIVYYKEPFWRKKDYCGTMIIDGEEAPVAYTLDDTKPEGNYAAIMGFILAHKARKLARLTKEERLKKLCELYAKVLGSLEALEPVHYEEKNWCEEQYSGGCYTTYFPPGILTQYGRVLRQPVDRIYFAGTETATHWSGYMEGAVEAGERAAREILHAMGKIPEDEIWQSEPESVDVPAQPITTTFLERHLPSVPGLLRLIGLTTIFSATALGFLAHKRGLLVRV
Description: The ability to inhibit MAO B was estimated by a fluorescence assay, as previously described.
The enzyme was purchased from Sigma-Aldrich (Steinheim, Germany). Screening was carried out at a concentration of 1 micromolar. Inhibitor activity was measured in the presence of p-tyramine.
Data are expressed as mean values of two independent experiments.

[5] = MTS assay in HepG2 cells; format: cell-based; settings: human, HepG2 hepatoma cells; at 50 µM, percentage of control (vehicle-treated cells); read-out: HepG2 Cell Viability (%)
Description: (§1) . After the indicated time, the MTS reagent was added directly to the cultured cells for 1 h, and then the absorbance at 490 nm was read. […] The results are presented in Table 2 and Figures S1 and S2 (Supplementary Materials).
(§2) The hepatoma cell line HepG2 (ATCC® HB-8065TM) and SH-SY5Y CRL-2266 neuroblastoma cell line were used to evaluate the toxicity of tested compounds. Tests were conducted as described previously. The CellTiter 96® Aqueous Non-Radioactive Cell Proliferation Assay was purchased from Promega (Madison, WI, USA). […]. […] Each experiment was performed twice, in triplicate.

[6] = tested on: HepG2 cells; experiment: MTS assay in HepG2 cells; format: cell-based; settings: Homo sapiens, HepG2; MTS assay, 48 h of exposure
Description: as §1, §2

[7] = MTS assay in SH-SY5Y cells; format: cell-based; settings: human, SH-SY5Y neuroblastoma cells; at 50 µM, percentage of control (vehicle-treated cells); read-out: SH-SY5Y Cell Viability (%)
Description: as §1, §2

[8] = tested on: SH-SY5Y cells; experiment: MTS assay in SH-SY5Y cells; format: cell-based; settings: Homo sapiens, SH-SY5Y; MTS assay, 24 h of exposure
Description: as §1, §2

[9] = MTS assay, statements on both cell lines together; format: cell-based, human; settings: human, HepG2 hepatoma cells and SH-SY5Y neuroblastoma cells; HepG2 48 h, SH-SY5Y 24 h; up to 50 µM; read-out: cell viability at the highest doses tested
[10] = target: T5, eqBuChE (Equus caballus, UniProt P81908); experiment: kinetic study of eqBuChE inhibition (Lineweaver-Burk, Cornish-Bowden plots); format: biochemical, equine; settings: substrate butyrylthiocholine
T5 construct: BuChE from equine serum (eqBuChE); purchased Sigma-Aldrich (Steinheim, Germany); host or cells: equine serum
Description: The Michaelis–Menten equation was used to calculate the maximum velocity (Vmax) and the Michaelis constant (Km).
(§3) The type of line intersection and the location of this intersection confirms the mixed type of inhibition.
(§4) Studies were performed with compounds 16 and 17 using a method as described previously. Vmax and Km values of the Michaelis–Menten kinetics were calculated by nonlinear regression from substrate–velocity curves. Lineweaver–Burk and Cornish–Bowden plots were calculated using linear regression in GraphPad Prism 9 software (GraphPad Software, San Diego, CA, USA). Each experiment was performed in triplicate.

[11] = tested on: HepG2 and SH-SY5Y cells; experiment: MTS assay, statements on both cell lines together; format: cell-based, human; settings: HepG2 or SH-SY5Y cells; up to 50 µM
[12] = target: T6, eeAChE (Electrophorus electricus, UniProt O42275); experiment: kinetic study of eeAChE inhibition (Lineweaver-Burk, Cornish-Bowden plots); format: biochemical; settings: substrate acetylthiocholine
T6 construct: purchased Sigma-Aldrich (Steinheim, Germany)
Description: […]. The Michaelis–Menten equation was used to calculate the maximum velocity (Vmax) and the Michaelis constant (Km).
as §3, §4

[13] = tested on: hH3R; settings: cited from earlier work
[14] = tested on: AChE extracted from mouse brains (mbAChE); parameters: method as in PMID 30822710; settings: cited from earlier work
[15] = tested on: mpBuChE; parameters: method as in PMID 30822710; settings: cited from earlier work
[16] = target: T2, AChE from electrophorus electricus (eeAChE); settings: cited from earlier work
[17] = target: T3, BuChE from equine serum (eqBuChE); settings: cited from earlier work
[18] = target: hH3R; settings: cited from earlier work; remark: listed apart in the source

T1 sequence (Q9Y5N1 whole entry): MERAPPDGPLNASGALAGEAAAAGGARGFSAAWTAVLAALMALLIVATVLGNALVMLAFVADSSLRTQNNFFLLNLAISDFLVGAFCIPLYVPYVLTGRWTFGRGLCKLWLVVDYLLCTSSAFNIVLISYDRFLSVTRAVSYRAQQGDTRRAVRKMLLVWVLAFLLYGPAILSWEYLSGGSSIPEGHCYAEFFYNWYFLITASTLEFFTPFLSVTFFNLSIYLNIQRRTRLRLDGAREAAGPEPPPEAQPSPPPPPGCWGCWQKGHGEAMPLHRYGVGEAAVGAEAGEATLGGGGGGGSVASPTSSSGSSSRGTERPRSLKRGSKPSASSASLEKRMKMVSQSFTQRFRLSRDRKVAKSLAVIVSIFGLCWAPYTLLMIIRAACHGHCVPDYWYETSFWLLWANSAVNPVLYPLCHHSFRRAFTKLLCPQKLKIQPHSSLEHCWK
T3 sequence (P81908 whole entry): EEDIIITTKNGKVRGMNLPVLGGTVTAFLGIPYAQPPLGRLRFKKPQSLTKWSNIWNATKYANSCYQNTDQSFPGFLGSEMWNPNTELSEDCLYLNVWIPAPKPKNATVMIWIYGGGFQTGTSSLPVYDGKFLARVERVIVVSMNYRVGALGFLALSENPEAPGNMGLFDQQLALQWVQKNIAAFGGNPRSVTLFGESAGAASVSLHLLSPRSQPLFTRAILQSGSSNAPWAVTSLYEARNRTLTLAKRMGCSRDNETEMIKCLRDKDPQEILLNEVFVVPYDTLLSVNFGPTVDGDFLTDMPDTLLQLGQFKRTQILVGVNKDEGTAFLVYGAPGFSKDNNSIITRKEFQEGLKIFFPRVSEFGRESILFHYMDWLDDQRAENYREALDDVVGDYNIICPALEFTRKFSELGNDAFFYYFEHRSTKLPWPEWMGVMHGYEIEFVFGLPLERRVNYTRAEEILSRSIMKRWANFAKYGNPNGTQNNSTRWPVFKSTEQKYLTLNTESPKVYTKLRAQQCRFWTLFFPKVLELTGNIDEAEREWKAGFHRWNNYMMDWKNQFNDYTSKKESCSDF
T2 sequence (O42275 24-633): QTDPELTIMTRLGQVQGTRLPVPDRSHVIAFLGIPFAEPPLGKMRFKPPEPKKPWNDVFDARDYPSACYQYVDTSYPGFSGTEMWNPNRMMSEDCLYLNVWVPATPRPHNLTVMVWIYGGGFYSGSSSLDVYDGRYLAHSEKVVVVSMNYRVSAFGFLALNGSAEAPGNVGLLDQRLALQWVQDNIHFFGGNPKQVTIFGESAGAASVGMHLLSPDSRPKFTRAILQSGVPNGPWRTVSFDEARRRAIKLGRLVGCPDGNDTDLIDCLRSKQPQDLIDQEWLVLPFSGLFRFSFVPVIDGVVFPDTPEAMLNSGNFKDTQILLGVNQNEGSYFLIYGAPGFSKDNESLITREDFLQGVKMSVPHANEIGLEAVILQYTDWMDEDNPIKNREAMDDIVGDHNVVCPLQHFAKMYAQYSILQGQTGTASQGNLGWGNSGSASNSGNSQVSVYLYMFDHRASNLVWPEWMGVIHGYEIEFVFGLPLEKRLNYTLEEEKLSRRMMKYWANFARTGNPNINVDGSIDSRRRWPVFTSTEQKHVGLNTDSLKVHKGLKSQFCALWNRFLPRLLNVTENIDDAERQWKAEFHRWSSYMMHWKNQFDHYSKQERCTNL
T6 sequence (O42275 24-633): as above
T5 sequence (P81908 whole entry): as the sequence (P81908 whole entry) above

Compound | Ki [1] | IC50 [2] [nM] | IC50 [3] [nM] | inhibition at 1 µM [4] [%] | viability at 48 h, 50 µM [5] [%] | IC50 [6] [nM] | viability at 24 h, 50 µM [7] [%] | IC50 [8] [nM] | viability at 50 µM [9] [%] | IC50 [16] [nM] | IC50 [17] [nM] | Ki [18] [nM] | also measured
CCC(=O)c1ccc(OCCCCCN2CCCC(C)C2)cc1 (stereo not shown) [Compound 8, 1-(4-((5-(3-Methylpiperidin-1-yl)pentyl)oxy)phenyl)propan-1-one hydrogen oxalate] | 12 nM | 2100 ± 60 | 1750 ± 50 | 19 | 70.9 ± 2.92 | 142000 | 90.7 ± 1.5 | 349000 | > 50 |  |  |  | 
CCC(=O)c1ccc(OCCCCCN2CCC(C)CC2)cc1 [Compound 12, 1-(4-((5-(4-Methylpiperidin-1-yl)pentyl)oxy)phenyl)propan-1-one hydrogen oxalate] | 57 nM |  | 1290 ± 80 | 0 | 77.2 ± 4.14 | 149000 | 90.7 ± 12.9 | 421000 | > 50 |  |  |  | inhibition at 10 µM ([2]; at 10 µM, read-out: eeAChE % inh): 58%
CCC(=O)c1ccc(OCCCCCN2CCCCCC2)cc1.O=C(O)C(=O)O [Compound 16, 1-(4-((5-(Azepan-1-yl)pentyl)oxy)phenyl)propan-1-one hydrogen oxalate] | < 50 nM and 30 nM | 3600 ± 120 | 550 ± 20 | 6 | 67.7 ± 1.14 | 92000 | 90.3 ± 5.32 | 357000 | > 50 |  |  |  | type of eqBuChE inhibition [10]: mixed; cell toxicity [11]: lack of cell toxicity
CCC(=O)c1ccc(OCCCCCCN2CCCCCC2)cc1.O=C(O)C(=O)O [Compound 17, 1-(4-((6-(Azepan-1-yl)hexyl)oxy)phenyl)propan-1-one hydrogen oxalate] | < 50 nM and 42 nM | 1060 ± 30 | 2860 ± 30 | 5 | 58 ± 3.54 | 60000 | 70.3 ± 4.46 | 111000 | > 50 |  |  |  | type of eeAChE inhibition [12]: non-competitive (mixed); also recorded: mixed; cell toxicity [11]: lack of cell toxicity
CCN(C)CCCCOc1ccc2c(=O)c(-c3ccc(OCCN4CCCCC4)cc3)coc2c1 [II] |  |  |  |  |  |  |  |  |  |  |  |  | IC50 [13]: 270 nM; IC50 [14]: 80 nM; IC50 [15]: 2890 nM
CN1CCN(CCCN(C)C(=O)c2cc3ccc(Cl)cc3[nH]2)CC1 [I] |  |  |  |  |  |  |  |  |  | 9090 | 21100 |  | EC50 [13]: 730 nM
C=CCN1CCN(CC2Cc3cc(C(C)(C)C)ccc3O2)CC1 (stereo not shown) [VI] |  |  |  |  |  |  |  |  |  | 19100 | 13200 | 16 | 
N#Cc1ccc(-c2ccc(OCCCN3CCCCCC3)cc2)cc1 [V] |  |  |  |  |  |  |  |  |  | 2630 | 1300 | 9 | 
O=C(c1ccccc1)c1ccc(OCCCCCN2CCCCCC2)cc1 [lead 2] |  |  |  |  |  |  |  |  |  | 4630 | 680 | 40 | 
